The results in this text go back to patent publication US8138189B2, “Substituted benzene compounds as modulators of the glucocorticoid receptor” (Hoffman-La Roche Inc., priority 2009, dated 2012).

SMILES strings stand for the structures.

The assay concerns the target T1, full length human recombinant glucocorticoid receptor (Homo sapiens, UniProt P04150).
T1 construct: partially purified full length human recombinant glucocorticoid receptor; purchased Panvera/Invitrogen PV4302
T1 sequence (P04150 1-777): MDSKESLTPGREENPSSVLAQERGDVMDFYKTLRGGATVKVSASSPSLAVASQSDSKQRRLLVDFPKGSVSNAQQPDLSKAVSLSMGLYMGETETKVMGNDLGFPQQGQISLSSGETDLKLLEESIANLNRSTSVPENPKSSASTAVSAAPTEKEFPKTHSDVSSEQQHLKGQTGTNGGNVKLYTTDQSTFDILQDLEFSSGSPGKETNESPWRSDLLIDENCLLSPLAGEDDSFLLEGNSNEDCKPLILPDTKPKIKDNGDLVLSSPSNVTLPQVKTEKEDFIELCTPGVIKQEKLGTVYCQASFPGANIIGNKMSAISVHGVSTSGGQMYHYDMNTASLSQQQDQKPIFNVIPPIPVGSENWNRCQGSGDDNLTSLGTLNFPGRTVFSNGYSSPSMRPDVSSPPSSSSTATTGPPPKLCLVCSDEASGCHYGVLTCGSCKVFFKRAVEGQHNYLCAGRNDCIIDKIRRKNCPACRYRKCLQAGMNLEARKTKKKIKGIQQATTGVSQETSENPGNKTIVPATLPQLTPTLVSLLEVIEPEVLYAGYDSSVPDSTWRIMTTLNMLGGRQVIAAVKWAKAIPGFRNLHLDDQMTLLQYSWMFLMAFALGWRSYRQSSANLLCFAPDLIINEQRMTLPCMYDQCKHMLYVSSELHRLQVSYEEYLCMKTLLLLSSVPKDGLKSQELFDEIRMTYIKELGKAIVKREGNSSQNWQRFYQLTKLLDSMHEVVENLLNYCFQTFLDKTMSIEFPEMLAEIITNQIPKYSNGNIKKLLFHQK
Put plainly: Glucocorticoid Receptor Binding Assay (fluorescence polarization competitor assay, Fluormone GS Far Red tracer). The gist of the method:
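Serially diluted compounds competed with the tight-binding far-red fluorescent ligand for recombinant full-length human glucocorticoid receptor plus GR-stabilizing peptide (screening buffer pH 7.4; 3 h, 22 °C, dark). Polarization (610-660 nm) gave IC50 via sigmoidal dose-response fits, and Ki was derived by Cheng-Prusoff from tracer concentration and Kd.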
For orientation: Fluorescence polarisation rises when a labelled molecule tumbles more slowly, as on binding a larger partner.
For the compound `CC(c1ccc(NC(=O)c2cccc(C(=O)O)c2)cc1Cl)C(O)(c1ccnc(Cl)c1)C(F)(F)F` (stereo not drawn) [Example 70, N-{3-Chloro-4-[2-(2-chloro-pyridin-4-yl)-3,3,3-trifluoro-2-hydroxy-1-methyl-propyl]-phenyl}-isophthalamic acid], the Ki (as a rule, the dissociation constant of the complex between target and ligand, obtained from inhibition or displacement) stood at 315 nM.
To `CC(c1ccc(NC(=O)c2cccc(CC(=O)O)c2)cc1Cl)C(O)(c1ccnc(Cl)c1)C(F)(F)F` (stereo not drawn) [Example 73, (3-{3-Chloro-4-[2-(2-chloro-pyridin-4-yl)-3,3,3-trifluoro-2-hydroxy-1-methyl-propyl]-phenylcarbamoyl}-phenyl)-acetic acid] belongs 93.5 nM.
The value for `CC(c1ccc(NS(=O)(=O)c2ccc(C(=O)O)cc2)cc1Cl)C(O)(c1ccnc(Cl)c1)C(F)(F)F` (stereo not drawn) [Example 76, 4-{3-Chloro-4-[2-(2-chloro-pyridin-4-yl)-3,3,3-trifluoro-2-hydroxy-1-methyl-propyl]-phenylsulfamoyl}-benzoic acid] was 178 nM; that for `CC(c1ccc(Nc2ccc(C(=O)O)cc2)cc1Cl)C(O)(c1ccnc(Cl)c1)C(F)(F)F` (stereo not drawn) [Example 77, 4-{3-Chloro-4-[2-(2-chloro-pyridin-4-yl)-3,3,3-trifluoro-2-hydroxy-1-methyl-propyl]-phenylamino}-benzoic acid] was 13.9 nM.
For `CC(c1ccc(N(c2ccc(C(=O)O)cn2)c2ccc(C(=O)O)cn2)cc1Cl)C(O)(c1ccnc(Cl)c1)C(F)(F)F` (stereo not drawn) [Example 78, 6,6′-(3-Chloro-4-(3-(2-chloropyridin-4-yl)-4,4,4-trifluoro-3-hydroxybutan-2-yl)phenylazanediyl)dinicotinic acid], the inhibition constant Ki is 76.7 nM.
Consider `CC(c1ccc(Oc2ccc(CC(=O)O)cc2)cc1Cl)C(O)(c1ccnc(Cl)c1)C(F)(F)F` (stereo not drawn) [Example 79, (4-{3-Chloro-4-[2-(2-chloro-pyridin-4-yl)-3,3,3-trifluoro-2-hydroxy-1-methyl-propyl]-phenoxy}-phenyl)-acetic acid], for which the Ki turned out to be 13.4 nM.
As to `CC(c1ccc(Oc2ccc(C(=O)O)cc2)cc1Cl)C(O)(c1ccnc(Cl)c1)C(F)(F)F` (stereo not drawn) [Example 80, 4-{3-Chloro-4-[2-(2-chloro-pyridin-4-yl)-3,3,3-trifluoro-2-hydroxy-1-methyl-propyl]-phenoxy}-benzoic acid], the inhibition constant (Ki) was found to be 2.1 nM.
The value for `CC(c1ccc(Oc2ccc(C(=O)O)nc2)cc1Cl)C(O)(c1ccnc(Cl)c1)C(F)(F)F` (stereo not drawn) [Example 81, 5-{3-Chloro-4-[2-(2-chloro-pyridin-4-yl)-3,3,3-trifluoro-2-hydroxy-1-methyl-propyl]-phenoxy}-pyridine-2-carboxylic acid] was 26.5 nM; that for `CC(c1ccc(Oc2ccc(C(=O)O)c(Cl)c2)cc1Cl)C(O)(c1ccnc(Cl)c1)C(F)(F)F` (stereo not drawn) [Example 82, 2-Chloro-4-{3-chloro-4-[2-(2-chloro-pyridin-4-yl)-3,3,3-trifluoro-2-hydroxy-1-methyl-propyl]-phenoxy}-benzoic acid] was 5.1 nM.
To `CC(c1ccc(Oc2ccc(C(=O)O)c(F)c2)cc1Cl)C(O)(c1ccnc(Cl)c1)C(F)(F)F` (stereo not drawn) [Example 83, 4-{3-Chloro-4-[2-(2-chloro-pyridin-4-yl)-3,3,3-trifluoro-2-hydroxy-1-methyl-propyl]-phenoxy}-2-fluoro-benzoic acid] belongs 5.6 nM.
The value for `CC(c1ccc(Oc2ccccc2C(=O)O)cc1Cl)C(O)(c1ccnc(Cl)c1)C(F)(F)F` (stereo not drawn) [Example 84, 2-{3-Chloro-4-[2-(2-chloro-pyridin-4-yl)-3,3,3-trifluoro-2-hydroxy-1-methyl-propyl]-phenoxy}-benzoic acid] was 35.5 nM.
With `CC(c1ccc(Oc2ccc(OCC(=O)O)cc2)cc1Cl)C(O)(c1ccnc(Cl)c1)C(F)(F)F` (stereo not drawn) [Example 85, (4-{3-Chloro-4-[2-(2-chloro-pyridin-4-yl)-3,3,3-trifluoro-2-hydroxy-1-methyl-propyl]-phenoxy}-phenoxy)-acetic acid], the Ki worked out at 1.4 nM.
With `COc1cc(Oc2ccc(C(C)C(O)(c3ccnc(Cl)c3)C(F)(F)F)c(Cl)c2)ccc1C(=O)O` (stereo not drawn) [Example 86, 4-{3-Chloro-4-[2-(2-chloro-pyridin-4-yl)-3,3,3-trifluoro-2-hydroxy-1-methyl-propyl]-phenoxy}-2-methoxy-benzoic acid], the inhibition constant Ki was determined as 16.4 nM.
To `CC(c1ccc(Oc2cccc(CC(=O)O)c2)cc1Cl)C(O)(c1ccnc(Cl)c1)C(F)(F)F` (stereo not drawn) [Example 87, (3-{3-Chloro-4-[2-(2-chloro-pyridin-4-yl)-3,3,3-trifluoro-2-hydroxy-1-methyl-propyl]-phenoxy}-phenyl)-acetic acid] belongs 15.1 nM; to `CC(c1ccc(Oc2ccc(C(=O)O)cc2F)cc1Cl)C(O)(c1ccnc(Cl)c1)C(F)(F)F` (stereo not drawn) [Example 88, 4-{3-Chloro-4-[2-(2-chloro-pyridin-4-yl)-3,3,3-trifluoro-2-hydroxy-1-methyl-propyl]-phenoxy}-3-fluoro-benzoic acid], 1.2 nM; to `CC(c1ccc(Oc2ccc(C(=O)O)cc2Cl)cc1Cl)C(O)(c1ccnc(Cl)c1)C(F)(F)F` (stereo not drawn) [Example 89, 3-Chloro-4-{3-chloro-4-[2-(2-chloro-pyridin-4-yl)-3,3,3-trifluoro-2-hydroxy-1-methyl-propyl]-phenoxy}-benzoic acid], 3.4 nM.
In the case of `CC(c1ccc(Oc2ccc(Cl)c(C(=O)O)c2)cc1Cl)C(O)(c1ccnc(Cl)c1)C(F)(F)F` (stereo not drawn) [Example 90, 2-Chloro-5-{3-chloro-4-[2-(2-chloro-pyridin-4-yl)-3,3,3-trifluoro-2-hydroxy-1-methyl-propyl]-phenoxy}-benzoic acid], the Ki was 4.5 nM.
To `CC(c1ccc(Oc2ccc(F)c(C(=O)O)c2)cc1Cl)C(O)(c1ccnc(Cl)c1)C(F)(F)F` (stereo not drawn) [Example 91, 5-{3-Chloro-4-[2-(2-chloro-pyridin-4-yl)-3,3,3-trifluoro-2-hydroxy-1-methyl-propyl]-phenoxy}-2-fluoro-benzoic acid] belongs 7.1 nM; to `CCOC(=O)c1ccc(COc2ccc(C(C)C(O)(c3ccnc(C)c3)C(F)(F)F)c(Cl)c2)cc1` (stereo not drawn) [Example 93, 4-{3-Chloro-4-[3,3,3-trifluoro-2-hydroxy-1-methyl-2-(2-methyl-pyridin-4-yl)-propyl]-phenoxymethyl}-benzoic acid ethyl ester], 8.2 nM; to `Cc1cc(C(O)(C(C)c2ccc(OCc3ccc(C(=O)O)cc3)cc2Cl)C(F)(F)F)ccn1` (stereo not drawn) [Example 94, 4-{3-Chloro-4-[3,3,3-trifluoro-2-hydroxy-1-methyl-2-(2-methyl-pyridin-4-yl)-propyl]-phenoxymethyl}-benzoic acid], 4 nM.
To `COC(=O)c1ccc(COc2ccc(C(C)C(O)(c3ccnc(C)c3)C(F)(F)F)c(Cl)c2)c(OC)c1` (stereo not drawn) [Example 95, 4-{3-Chloro-4-[3,3,3-trifluoro-2-hydroxy-1-methyl-2-(2-methyl-pyridin-4-yl)-propyl]-phenoxymethyl}-3-methoxy-benzoic acid methyl ester] belongs 3.6 nM.
Regarding `COc1cc(C(=O)O)ccc1COc1ccc(C(C)C(O)(c2ccnc(C)c2)C(F)(F)F)c(Cl)c1` (stereo not drawn) [Example 96, 4-{3-Chloro-4-[3,3,3-trifluoro-2-hydroxy-1-methyl-2-(2-methyl-pyridin-4-yl)-propyl]-phenoxymethyl}-3-methoxy-benzoic acid], the Ki was determined as 6.1 nM.
The value for `CCOC(=O)c1ccc(COc2ccc(C(C)C(O)(c3ccnc(C)c3)C(F)(F)F)c(Cl)c2)cn1` (stereo not drawn) [Example 97, 5-{3-Chloro-4-[3,3,3-trifluoro-2-hydroxy-1-methyl-2-(2-methyl-pyridin-4-yl)-propyl]-phenoxymethyl}-pyridine-2-carboxylic acid ethyl ester] was 9.1 nM; that for `Cc1cc(C(O)(C(C)c2ccc(OCc3ccc(C(=O)O)nc3)cc2Cl)C(F)(F)F)ccn1` (stereo not drawn) [Example 98, 5-{3-Chloro-4-[3,3,3-trifluoro-2-hydroxy-1-methyl-2-(2-methyl-pyridin-4-yl)-propyl]-phenoxymethyl}-pyridine-2-carboxylic acid] was 40.9 nM; that for `COC(=O)c1ccnc(COc2ccc(C(C)C(O)(c3ccnc(C)c3)C(F)(F)F)c(Cl)c2)c1` (stereo not drawn) [Example 99, 2-{3-Chloro-4-[3,3,3-trifluoro-2-hydroxy-1-methyl-2-(2-methyl-pyridin-4-yl)-propyl]-phenoxymethyl}-isonicotinic acid methyl ester] was 9.1 nM.
As for `Cc1cc(C(O)(C(C)c2ccc(OCc3cc(C(=O)O)ccn3)cc2Cl)C(F)(F)F)ccn1` (stereo not drawn) [Example 100, 2-{3-Chloro-4-[3,3,3-trifluoro-2-hydroxy-1-methyl-2-(2-methyl-pyridin-4-yl)-propyl]-phenoxymethyl}-isonicotinic acid], the inhibitory constant (Ki) was 34.9 nM.
To `CCOC(=O)c1cc(COc2ccc(C(C)C(O)(c3ccnc(C)c3)C(F)(F)F)c(Cl)c2)ccn1` (stereo not drawn) [Example 101, 4-{3-Chloro-4-[3,3,3-trifluoro-2-hydroxy-1-methyl-2-(2-methyl-pyridin-4-yl)-propyl]-phenoxymethyl}-pyridine-2-carboxylic acid ethyl ester] belongs 9.4 nM.
